The values below are quoted from earlier work in patent publication US8642577B2 (priority 2005, dated 2014).

For this series, the system named is poxvirus. The conditions noted are these: in vivo, po.

Each structure is given as a SMILES string.

On to `Nc1ccn(C[C@@H](CO)OCP(=O)(O)O)c(=O)n1` [CDV, cidofovir], for which the “activity against poxvirus when given orally” value was “inactive when given orally”.
`Nc1ccn(C[C@H]2COP(=O)(O)CO2)c(=O)n1` [cCDV, cyclic cidofovir]: the “activity against poxvirus when given orally” value is “inactive when given orally”.
